{
  "source": "ChEMBL document CHEMBL5154941",
  "about": "“Structural Modifications of Nimodipine Lead to Novel PDE1 Inhibitors with Anti-pulmonary Fibrosis Effects” (J Med Chem, 2022)",
  "key": {"[1]": {"biological_target": "Dual specificity calcium/calmodulin-dependent 3',5'-cyclic nucleotide phosphodiesterase 1B (Homo sapiens, UniProt Q01064)", "sequence (Q01064 whole entry, the tested form may be a part)": "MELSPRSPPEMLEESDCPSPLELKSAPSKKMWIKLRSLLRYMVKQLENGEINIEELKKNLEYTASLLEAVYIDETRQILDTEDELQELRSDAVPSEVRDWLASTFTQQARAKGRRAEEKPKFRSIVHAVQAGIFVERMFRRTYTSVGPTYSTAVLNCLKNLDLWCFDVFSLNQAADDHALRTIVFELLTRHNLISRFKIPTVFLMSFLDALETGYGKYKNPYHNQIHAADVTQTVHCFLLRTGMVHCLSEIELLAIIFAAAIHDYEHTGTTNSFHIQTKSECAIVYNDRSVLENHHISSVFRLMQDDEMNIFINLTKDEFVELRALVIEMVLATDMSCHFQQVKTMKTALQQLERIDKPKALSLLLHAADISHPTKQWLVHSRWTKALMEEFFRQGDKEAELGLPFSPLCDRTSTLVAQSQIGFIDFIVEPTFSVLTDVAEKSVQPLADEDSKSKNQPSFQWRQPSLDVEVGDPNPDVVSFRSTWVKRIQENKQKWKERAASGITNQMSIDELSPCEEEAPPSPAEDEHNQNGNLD", "test": "Inhibition of PDE1B (10 to 487 residues) (unknown origin) expressed in Escherichia coli BL21 using [3H]-cGMP as substrate measured for 15 mins by liquid scintillation counter method"}, "[2]": {"biological_target": "T1, cGMP-inhibited 3',5'-cyclic phosphodiesterase 3A (Homo sapiens, UniProt Q14432)", "T1 sequence (Q14432 whole entry, the tested form may be a part)": "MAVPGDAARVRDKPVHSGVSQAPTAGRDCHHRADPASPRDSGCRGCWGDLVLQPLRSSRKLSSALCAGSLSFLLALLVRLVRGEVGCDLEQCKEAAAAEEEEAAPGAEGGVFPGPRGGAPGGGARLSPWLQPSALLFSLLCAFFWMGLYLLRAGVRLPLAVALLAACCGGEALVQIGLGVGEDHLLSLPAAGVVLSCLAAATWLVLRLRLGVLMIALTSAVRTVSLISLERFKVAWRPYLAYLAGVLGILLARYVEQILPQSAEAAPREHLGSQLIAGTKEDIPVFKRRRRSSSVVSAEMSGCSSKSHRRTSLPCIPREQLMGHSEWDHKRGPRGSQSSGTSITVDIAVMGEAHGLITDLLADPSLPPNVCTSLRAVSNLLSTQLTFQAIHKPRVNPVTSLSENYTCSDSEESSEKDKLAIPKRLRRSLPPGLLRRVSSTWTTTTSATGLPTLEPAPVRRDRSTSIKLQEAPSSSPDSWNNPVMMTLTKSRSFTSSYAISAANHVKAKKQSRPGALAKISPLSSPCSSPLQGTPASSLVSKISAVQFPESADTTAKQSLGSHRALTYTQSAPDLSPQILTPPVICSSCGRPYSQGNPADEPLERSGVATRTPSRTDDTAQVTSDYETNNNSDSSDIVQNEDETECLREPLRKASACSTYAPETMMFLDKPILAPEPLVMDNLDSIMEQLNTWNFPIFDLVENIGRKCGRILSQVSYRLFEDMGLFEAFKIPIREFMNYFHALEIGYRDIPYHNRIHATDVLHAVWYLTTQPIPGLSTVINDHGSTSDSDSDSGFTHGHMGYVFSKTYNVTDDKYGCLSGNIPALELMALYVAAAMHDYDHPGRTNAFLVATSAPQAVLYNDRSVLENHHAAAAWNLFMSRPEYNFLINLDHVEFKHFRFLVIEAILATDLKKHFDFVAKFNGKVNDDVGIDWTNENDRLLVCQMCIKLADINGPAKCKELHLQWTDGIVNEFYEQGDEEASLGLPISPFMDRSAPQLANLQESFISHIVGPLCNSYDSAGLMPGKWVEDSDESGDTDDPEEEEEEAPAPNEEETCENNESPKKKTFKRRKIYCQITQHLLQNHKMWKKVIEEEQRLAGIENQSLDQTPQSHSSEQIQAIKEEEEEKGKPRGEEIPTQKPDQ", "test": "Inhibition of PDE3A (679 to 1087 residues) (unknown origin) expressed in Escherichia coli BL21 using [3H]-cAMP as substrate at 10000 nM measured for 15 mins by liquid scintillation counter method"}, "[3]": {"biological_target": "T1, cGMP-inhibited 3',5'-cyclic phosphodiesterase 3A", "test": "Inhibition of PDE3A (679 to 1087 residues) (unknown origin) expressed in Escherichia coli BL21 using [3H]-cAMP as substrate measured for 15 mins by liquid scintillation counter method"}, "[4]": {"test": "Volume of distribution at steady state in Sprague-Dawley rat at 5 mg/kg, iv", "format": "ADME, organism-based", "settings": "in vivo, read-out: Vdss"}, "[5]": {"biological_target": "3',5'-cyclic-AMP phosphodiesterase 4D (Homo sapiens, UniProt Q08499)", "sequence (Q08499 whole entry, the tested form may be a part)": "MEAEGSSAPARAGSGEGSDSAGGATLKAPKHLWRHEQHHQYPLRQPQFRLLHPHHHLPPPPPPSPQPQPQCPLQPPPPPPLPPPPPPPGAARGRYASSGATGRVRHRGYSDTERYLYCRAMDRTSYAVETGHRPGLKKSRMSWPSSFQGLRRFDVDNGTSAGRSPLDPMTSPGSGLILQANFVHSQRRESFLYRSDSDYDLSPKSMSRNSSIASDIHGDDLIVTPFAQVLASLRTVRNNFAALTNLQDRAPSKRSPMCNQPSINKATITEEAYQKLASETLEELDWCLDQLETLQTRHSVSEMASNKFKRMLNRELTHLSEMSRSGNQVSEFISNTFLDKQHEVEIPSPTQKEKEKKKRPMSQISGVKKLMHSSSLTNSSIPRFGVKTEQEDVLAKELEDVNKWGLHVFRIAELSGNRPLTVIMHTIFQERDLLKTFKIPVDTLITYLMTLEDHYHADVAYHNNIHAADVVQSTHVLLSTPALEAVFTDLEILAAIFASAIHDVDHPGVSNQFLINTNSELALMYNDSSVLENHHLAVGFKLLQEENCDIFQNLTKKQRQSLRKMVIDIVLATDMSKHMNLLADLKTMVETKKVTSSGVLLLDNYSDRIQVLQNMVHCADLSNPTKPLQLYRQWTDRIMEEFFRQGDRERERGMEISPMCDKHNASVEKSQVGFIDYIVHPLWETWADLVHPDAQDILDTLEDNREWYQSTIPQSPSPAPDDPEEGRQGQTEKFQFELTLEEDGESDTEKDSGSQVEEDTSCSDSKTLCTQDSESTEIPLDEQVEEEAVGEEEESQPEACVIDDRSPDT", "test": "Inhibition of PDE4D2 (86 to 413 residues) (unknown origin) expressed in Escherichia coli BL21 [3H]-cAMP as substrate measured for 15 mins by liquid scintillation counter method"}, "Rattus norvegicus [6]": {"tested_on": "Rattus norvegicus", "test": "Antifibrotic activity in bleomycin-induced Sprague-Dawley rat lung fibrosis model assessed as increase in cAMP level at 2.5 to 5 mg/kg, ip administered daily for 28 days by ELISA analysis", "format": "functional, organism-based", "settings": "dose 2.5-5 mg/kg, time 28.0 day"}, "Rattus norvegicus [7]": {"tested_on": "Rattus norvegicus", "test": "Antifibrotic activity in bleomycin-induced Sprague-Dawley rat pulmonary fibrosis model assessed as decrease in number of lung foci at 5 mg/kg, ip administered daily for 28 days by H&E staining based histopathological analysis", "format": "functional, organism-based", "settings": "time 28.0 day"}, "[8]": {"test": "AUC (0 to infinity) in Sprague-Dawley rat at 5 mg/kg, iv", "format": "ADME, organism-based", "set-up": "time infinity, dose 5 mg/kg, route iv", "settings": "in vivo"}, "[9]": {"biological_target": "High affinity cAMP-specific and IBMX-insensitive 3',5'-cyclic phosphodiesterase 8A (Homo sapiens, UniProt O60658)", "sequence (O60658 whole entry, the tested form may be a part)": "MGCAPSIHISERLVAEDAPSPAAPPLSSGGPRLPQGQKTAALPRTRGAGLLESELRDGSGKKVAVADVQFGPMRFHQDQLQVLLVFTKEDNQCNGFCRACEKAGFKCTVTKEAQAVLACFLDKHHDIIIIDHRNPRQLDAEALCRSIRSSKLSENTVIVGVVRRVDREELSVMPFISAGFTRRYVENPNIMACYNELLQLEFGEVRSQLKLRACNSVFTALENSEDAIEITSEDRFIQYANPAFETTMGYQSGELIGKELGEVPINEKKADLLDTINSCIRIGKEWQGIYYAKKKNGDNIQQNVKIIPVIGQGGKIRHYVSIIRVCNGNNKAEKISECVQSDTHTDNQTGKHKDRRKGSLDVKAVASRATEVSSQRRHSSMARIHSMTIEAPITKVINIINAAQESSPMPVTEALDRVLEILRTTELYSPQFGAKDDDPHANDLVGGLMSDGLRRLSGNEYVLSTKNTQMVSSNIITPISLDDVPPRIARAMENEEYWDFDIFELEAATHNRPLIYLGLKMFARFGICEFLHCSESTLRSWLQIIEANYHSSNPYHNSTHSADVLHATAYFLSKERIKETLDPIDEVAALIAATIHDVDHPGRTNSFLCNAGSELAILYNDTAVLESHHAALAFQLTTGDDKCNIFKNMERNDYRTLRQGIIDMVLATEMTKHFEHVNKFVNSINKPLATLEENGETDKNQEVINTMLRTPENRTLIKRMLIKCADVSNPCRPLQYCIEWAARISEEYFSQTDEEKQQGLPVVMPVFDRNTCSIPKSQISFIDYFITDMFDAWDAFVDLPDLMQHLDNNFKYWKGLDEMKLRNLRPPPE", "test": "Inhibition of PDE8A1 (480 to 820 residues) (unknown origin) expressed in Escherichia coli BL21 using [3H]-cAMP as substrate measured for 15 mins by liquid scintillation counter method"}, "[10]": {"biological_target": "cGMP-specific 3',5'-cyclic phosphodiesterase (Homo sapiens, UniProt O76074)", "test": "Inhibition of PDE5A1 (535 to 860 residues) (unknown origin) expressed in Escherichia coli BL21 [3H]-cGMP as substrate measured for 15 mins by liquid scintillation counter method"}, "Rattus norvegicus [11]": {"tested_on": "Rattus norvegicus", "test": "Antifibrotic activity in bleomycin-induced Sprague-Dawley rat pulmonary fibrosis model assessed as smaller lung foci at 5 mg/kg, ip administered daily for 28 days by H&E staining based histopathological analysis", "format": "functional, organism-based", "settings": "time 28.0 day"}, "Cytochrome P450 2C19": {"biological_target": "Cytochrome P450 2C19 (Homo sapiens, UniProt P33261)", "sequence (P33261 whole entry)": "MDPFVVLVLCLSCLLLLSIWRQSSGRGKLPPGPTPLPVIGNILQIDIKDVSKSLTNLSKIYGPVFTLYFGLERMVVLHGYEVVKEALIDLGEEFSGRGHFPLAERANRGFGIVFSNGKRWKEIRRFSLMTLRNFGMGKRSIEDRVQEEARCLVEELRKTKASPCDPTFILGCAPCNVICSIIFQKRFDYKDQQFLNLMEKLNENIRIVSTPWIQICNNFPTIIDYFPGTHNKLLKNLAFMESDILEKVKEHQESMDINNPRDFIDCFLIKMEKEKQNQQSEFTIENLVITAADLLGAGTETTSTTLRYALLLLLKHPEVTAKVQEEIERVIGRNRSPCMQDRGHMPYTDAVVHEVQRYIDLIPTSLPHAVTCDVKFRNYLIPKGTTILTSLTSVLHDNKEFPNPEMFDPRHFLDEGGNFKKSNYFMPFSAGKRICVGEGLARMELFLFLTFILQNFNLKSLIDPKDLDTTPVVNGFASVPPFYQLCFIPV", "test": "Inhibition of CYP2C19 in human liver microsomes at 25 uM in the presence of NADPH", "format": "ADME, Microsome"}, "HLF [12]": {"tested_on": "HLF", "test": "Antifibrotic activity in TGF-beta induced HLF cell assessed as suppression of alpha-SMA level at 10 uM incubated for 48 hrs by Western blot analysis", "format": "functional, cell-based", "settings": "Homo sapiens"}, "[13]": {"biological_target": "3',5'-cyclic-AMP phosphodiesterase 4B (Homo sapiens, UniProt Q07343)", "sequence (Q07343 whole entry, the tested form may be a part)": "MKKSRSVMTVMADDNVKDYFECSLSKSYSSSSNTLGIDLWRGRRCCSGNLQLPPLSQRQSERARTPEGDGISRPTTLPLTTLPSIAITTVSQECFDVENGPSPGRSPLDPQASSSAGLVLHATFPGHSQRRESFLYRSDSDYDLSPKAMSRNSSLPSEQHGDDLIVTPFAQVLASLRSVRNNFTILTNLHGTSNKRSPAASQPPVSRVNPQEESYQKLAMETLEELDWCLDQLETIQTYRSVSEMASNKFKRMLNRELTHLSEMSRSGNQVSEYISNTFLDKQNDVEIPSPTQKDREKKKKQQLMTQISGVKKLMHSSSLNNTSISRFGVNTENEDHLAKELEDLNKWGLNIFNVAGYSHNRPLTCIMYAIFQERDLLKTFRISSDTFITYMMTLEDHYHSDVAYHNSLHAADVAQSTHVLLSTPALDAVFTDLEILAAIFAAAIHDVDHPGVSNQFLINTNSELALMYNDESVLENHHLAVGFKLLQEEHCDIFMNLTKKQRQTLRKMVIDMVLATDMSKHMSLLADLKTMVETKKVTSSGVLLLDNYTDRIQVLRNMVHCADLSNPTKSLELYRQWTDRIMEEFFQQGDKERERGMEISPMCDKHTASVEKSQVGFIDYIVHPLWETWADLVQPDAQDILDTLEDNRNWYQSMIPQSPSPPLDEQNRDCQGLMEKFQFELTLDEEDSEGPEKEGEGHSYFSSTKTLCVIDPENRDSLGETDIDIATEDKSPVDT", "test": "Inhibition of PDE4B2 (152 to 487 residues) (unknown origin) expressed in Escherichia coli BL21 measured for 15 mins by liquid scintillation counter method"}, "HLF [14]": {"tested_on": "HLF", "test": "Antifibrotic activity in TGF-beta induced HLF cell assessed as suppression of alpha-SMA level incubated for 48 hrs by Western blot analysis", "format": "functional, cell-based", "settings": "Homo sapiens, DDE = dose-dependent effect"}, "HLF [15]": {"tested_on": "HLF", "test": "Antifibrotic activity in TGF-beta induced HLF cell assessed as suppression of Col-I level incubated for 48 hrs by Western blot analysis", "format": "functional, cell-based", "settings": "Homo sapiens, DDE = dose-dependent effect"}, "Rattus norvegicus [16]": {"tested_on": "Rattus norvegicus", "test": "Antifibrotic activity in bleomycin-induced Sprague-Dawley rat pulmonary fibrosis model assessed as decrease in end-expiratory pause at 2.5 to 5 mg/kg, ip administered daily for 28 days", "format": "functional, organism-based", "settings": "dose 2.5-5 mg/kg, time 28.0 day"}, "[17]": {"biological_target": "cAMP and cAMP-inhibited cGMP 3',5'-cyclic phosphodiesterase 10A (Homo sapiens, UniProt Q9Y233)", "test": "Inhibition of PDE10A (449 to 770 residues) (unknown origin) expressed in Escherichia coli BL21 using [3H]-cAMP as substrate measured for 15 mins by liquid scintillation counter method"}, "HLF [18]": {"tested_on": "HLF", "test": "Antifibrotic activity in TGF-beta induced HLF cell assessed as suppression of FN level at 10 uM incubated for 48 hrs by Western blot analysis", "format": "functional, cell-based", "settings": "Homo sapiens"}, "[19]": {"test": "MRT (0 to t) in Sprague-Dawley rat at 5 mg/kg, iv", "format": "ADME, organism-based", "settings": "in vivo"}, "Rattus norvegicus [20]": {"tested_on": "Rattus norvegicus", "test": "Antifibrotic activity in bleomycin-induced Sprague-Dawley rat lung fibrosis model assessed as reduced septal enlargement at 5 mg/kg, ip administered daily for 28 days by hematoxylin and eosin staining based histopathological analysis", "format": "functional, organism-based", "settings": "time 28.0 day"}, "[21]": {"test": "Half life in Sprague-Dawley rat at 5 mg/kg, iv", "format": "ADME, organism-based", "settings": "in vivo"}, "Rattus norvegicus [22]": {"tested_on": "Rattus norvegicus", "test": "Antifibrotic activity in bleomycin-induced Sprague-Dawley rat lung fibrosis model assessed as decrease in fibronectin level at 2.5 to 5 mg/kg, ip administered daily for 28 days by Western blot analysis", "format": "functional, organism-based", "settings": "dose 2.5-5 mg/kg, time 28.0 day"}, "[23]": {"test": "Cmax in Sprague-Dawley rat at 5 mg/kg, iv", "format": "ADME, organism-based", "set-up": "dose 5 mg/kg, route iv", "settings": "in vivo"}, "[24]": {"test": "Acute toxicity in overnight fasted KM mouse at 2000 mg/kg, po dosed daily for 14 days", "format": "organism-based", "settings": "in vivo, 336 h, time 14 day"}, "Rattus norvegicus [25]": {"tested_on": "Rattus norvegicus", "test": "Antifibrotic activity in bleomycin-induced Sprague-Dawley rat pulmonary fibrosis model assessed as increase in respiratory rate at 2.5 to 5 mg/kg, ip administered daily for 28 days", "format": "functional, organism-based", "settings": "dose 2.5-5 mg/kg, time 28.0 day"}},
  "note": "pIC50: −log10 of the molar value. The source made the active and inactive calls. The rule behind the calls is not given here.",
  "data": [
    {"smiles": "CC1=C(C(=O)O[C@H](C)c2ccccc2)C(c2ccc3c(cnn3C)c2)C(C(=O)O[C@H](C)c2ccccc2)=C(C)N1", "values": [
      {"measurement": "pIC50", "setting": "[1]", "value": 6.45},
      {"measurement": "inhibition", "setting": "[2]", "value": "< 50", "unit": "%"},
      {"measurement": "pIC50", "setting": "[3]", "value": "< 5.00"},
      {"measurement": "Vd", "setting": "[4]", "value": 3.81, "unit": "L/kg"},
      {"measurement": "pIC50", "setting": "[5]", "value": 6.02},
      {"measurement": "Activity", "setting": "Rattus norvegicus [6]", "value": "Active"},
      {"measurement": "Activity", "setting": "Rattus norvegicus [7]", "value": "Active"},
      {"measurement": "AUC(0-inf)", "setting": "[8]", "value": 4590, "unit": "ng·h/mL"},
      {"measurement": "pIC50", "setting": "[9]", "value": "< 5.00"},
      {"measurement": "pIC50", "setting": "[10]", "value": 5.74},
      {"measurement": "Activity", "setting": "Rattus norvegicus [11]", "value": "Active"},
      {"measurement": "pIC50", "setting": "Cytochrome P450 2C19", "value": 5.41},
      {"measurement": "Activity", "setting": "HLF [12]", "value": "Active"},
      {"measurement": "pIC50", "setting": "[13]", "value": 6.21},
      {"measurement": "Activity", "setting": "HLF [14]", "value": "Dde"},
      {"measurement": "Activity", "setting": "HLF [15]", "value": "Dde"},
      {"measurement": "Activity", "setting": "Rattus norvegicus [16]", "value": "Active"},
      {"measurement": "pIC50", "setting": "[17]", "value": 5.88},
      {"measurement": "Activity", "setting": "HLF [18]", "value": "Active"},
      {"measurement": "MRT last", "setting": "[19]", "value": 3.44, "unit": "h"},
      {"measurement": "Activity", "setting": "Rattus norvegicus [20]", "value": "Active"},
      {"measurement": "half-life", "setting": "[21]", "value": 3.67, "unit": "h"},
      {"measurement": "Activity", "setting": "Rattus norvegicus [22]", "value": "Active"},
      {"measurement": "Cmax", "setting": "[23]", "value": 2830, "unit": "ng/mL"},
      {"measurement": "Activity", "setting": "[24]", "value": "Non-Toxic"},
      {"measurement": "Activity", "setting": "Rattus norvegicus [25]", "value": "Active"}
    ]}
  ]
}
